Laboratory results taken from patent US20110092445A1, “Amyloid ß peptide analogues, oligomers thereof, processes for preparing and composi-tions comprising said analogues or oligomers, and their uses” (Abbott Laboratories, priority 2008, published 2011).
Bridges are numbered along the chain shown (N, C = ends). Where no end group is shown, it is not given here.

Assays:
[1] = tested on: Alzheimer Disease transgenic mice; conditions: active immunization, cited from earlier work
[2] = tested on: polyclonal rabbit serum 5599; test: Dot blot analysis with rabbit polyclonal antibody 5599; assay type: binding; conditions: FIG. 8B; serum shows high general background
Description: (§1) 1. (14C, 37C) N-Met Aβ(1-42) oligomer of example 4a 2. Thermolysin truncated (14C, 37C) N-Met Aβ(1-42) oligomer of example 5a 3. (15C, 36C) N-Met Aβ(1-42) oligomer of example 4b 4. Thermolysin truncated (15C, 36C) N-Met Aβ(1-42) oligomer of example 5b 5. (16C, 35C) N-Met Aβ(1-42) oligomer of example 4c 6. Thermolysin truncated (16C, 35C) N-Met Aβ(1-42) oligomer of example 5c 7. (17C, 34C) N-Met Aβ(1-42) oligomer of example 4d 8) Thermolysin truncated (17C, 34C) N-Met Aβ(1-42) oligomer of example 5d 9. (18C, 33C) N-Met Aβ(1-42) oligomer of example 4e 10. Thermolysin truncated (18C, 33C) N-Met Aβ(1-42) oligomer of example 5e 11. (19C, 32C) N-Met Aβ(1-42) oligomer of example 4f 12. Thermolysin truncated (19C, 32C) N-Met Aβ(1-42) oligomer of example 5f 13. (20C, 31C) N-Met Aβ(1-42) oligomer of example 4g 14. Thermolysin truncated (20C, 31C) N-Met Aβ(1-42) oligomer of example 5g 15. (21C, 30C) N-Met Aβ(1-42) oligomer of example 4h 16. Thermolysin truncated (21C, 30C) N-Met Aβ(1-42) oligomer of example 5h 17. (22C, 29C) N-Met Aβ(1-42) oligomer of example 4i 18. Thermolysin truncated (22C, 29C) N-Met Aβ(1-42) oligomer of example 5i 19. Aβ(1-42) globulomer of example 4j 20. Aβ(1-42) thermolysin truncated globulomer of example 5j
(§2) • Serial dilution of Aβ antigens in columns 1-20 in 20 mM NaH2PO4, 140 mM NaCl, pH 7.4+0.2 mg/ml BSA • 1) 10 pmol/μl • 2) 1 pmol/μl • 3) 0.1 pmol/μl • 4) 0.01 pmol/μl • 5) 0.001 pmol/μl
(§3) • TBS • 25 mM Tris/HCl-buffer pH 7.5 • +150 mM NaCl • TTBS • 25 mM Tris/HCl-buffer pH 7.5 • +150 mM NaCl • +0.05% Tween 20 • PBS+0.2 mg/ml BSA • 20 mM NaH2PO4 buffer pH 7.4 • +140 mM NaCl • +0.2 mg/ml BSA
(§4) • Either Rabbit sera samples or mouse monoclonal antibodies were used as Antibody solution I and prepared as in the following: • Rabbit sera samples (1:200 diluted in 20 ml 1% low fat milk in TBS) • Mouse monoclonal antibodies (diluted to 0.2 μg/ml in 20 ml 1% low fat milk in TBS)
(§5) • In the case Antibody solution I was Rabbit sera samples then Antibody solution II was Anti-Rabbit-AP. […]

[3] = tested on: Aβ globulomer-specific antibody 7C6; test: Dot blot analysis with monoclonal antibody 7C6; assay type: binding, murine; conditions: FIG. 8A
Description: as §1, §2, §3, §4, §5

[4] = tested on: Aβ globulomer epitope specific antibody 7C6; test: Immunoprecipitation with 7C6-Dynabeads and SELDI-MS detection; assay type: binding, murine
Description: (§6) A: Activation of Dynabeads with Monoclonal Mouse Antibodies • The stock-suspension of dynabeads (Dynabeads M-280 Sheep anti-Mouse IgG, Invitrogen; Cat. no.: 112.02) was shaken carefully to prevent foaming. • 1 mL was aseptically removed and transferred to a 1.5 mL reaction vial. • The dynabeads were washed 3 times 5 min with 1 mL immunoprecipitation (IP)-wash buffer (IP-wash-buffer: PBS (20 mM NaH2PO4, 140 mM NaCl, pH 7.4), 0.1% BSA). During the washing procedure the supernatant was carefully removed while the dynabeads were immobilized at the side of the reaction vial with a magnetic separator stand (MSS). • The washed dynabeads were incubated with 40 μg Aβ antibody in 1 mL PBS, 0.1% BSA • The activation was carried out by overnight incubation under shaking at 4° C. • The activated dynabeads were washed 4 times 30 min (again using the MSS) with 1 mL IP-wash buffer (PBS (20 mM NaH2PO4, 140 mM NaCl, pH 7.4), 0.1% BSA). • The activated dynabeads were resuspended with 1 mL PBS, 0.1% BSA, 0.02% NaAzide; vortexed and centrifuged briefly. • The antibody activated dynabeads were stored at 4° C. until further use. […]

[5] = tested on: Aβ globulomer epitope specific antibody 10F11; test: Immunoprecipitation with 10F11-Dynabeads and SELDI-MS detection; assay type: binding, murine; conditions: FIG. 10A/10B; isotype controls IgG2a, IgG2b
Description: as §6

Substance	recognition by polyclonal rabbit serum 5599 in dot blot [2]	recognition by Aβ globulomer-specific antibody 7C6 in dot blot [3]	further results
Aβ(20-42) truncated globulomer: obtained by subjecting an Aβ(1-42) globulomer to thermolysin proteolysis (FAEDVGSNKGAIIGLMVGGVVIA; also: truncated globulomer)			reversal of deficits in novel object recognition task ([1]; AD transgenic mouse models): proven to reverse deficits in novel object recognition task; reversing cognitive defects in Alzheimer Disease transgenic mice [1]: effective in reversing cognitive defects
Aβ(1-42) globulomer [example 4j]	do not detect	do not detect	
Thermolysin truncation of Aβ(1-42) globulomer [example 5j]	comparable recognition	comparable recognition	
Disulfide-stabilized (17C, 34C) ARO 6-35)-amide oligomer (KCVFFAEDVGSNKGAIIGCM-NH2; disulfide 2-19; also: oligomer; UniProt P05067 687-706, looked up, variant L17C L34C) [example 4p]			recognition by 7C6 (immunoprecipitation, SELDI-MS) ([4]; FIG. 10A/10B, isotype controls IgG2a, IgG2b): recognized; presence of the Aβ globulomer epitope (conclusion from immunoprecipitation) ([4]; immunoprecipitation with 7C6 and 10F11): contained the Aβ globulomer epitope; recognition by 10F11 (immunoprecipitation, SELDI-MS) [5]: recognized
Thermolysin truncation of disulfide-stabilized (15C, 36C) N-Met Aβ(1-42) oligomer [example 5b]	recognized by the polyclonal rabbit serum 5599	only recognized by the polyclonal rabbit serum 5599	
